Assay results as given in PubChem BioAssay (NCI).
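In this assay, cells in 96-well plates receive the compound at five concentrations for 48 hours. Endpoints are linearly interpolated between the surrounding concentrations. Abbreviation: GI50, concentration required for 50% inhibition of growth. TGI marks complete inhibition of growth.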

Assays:
Test in all cases: NCI tumour cell line growth inhibition, 48 h; in the data active = GI50 below about 0.43 µM; inactive = the rest
[1] = test system: A498 renal
[2] = test system: BT-549 breast
[3] = test system: DU-145 prostate
[4] = test system: HS 578T breast
[5] = test system: KM12 colon
[6] = test system: NCI-H226 lung
[7] = test system: SF-268 CNS
[8] = test system: SF-539 CNS
[9] = test system: SK-MEL-28 melanoma
[10] = test system: SK-MEL-5 melanoma
[11] = test system: SNB-75 CNS
[12] = test system: 786-0 renal
[13] = test system: A549 NSCLC
[14] = test system: ACHN renal
[15] = test system: CCRF-CEM leukemia
[16] = test system: HCC-2998 colon
[17] = test system: HL-60(TB) leukemia
[18] = test system: HOP-62 NSCLC
[19] = test system: HOP-92 NSCLC
[20] = test system: HT29 colon
[21] = test system: IGROV1 ovarian
[22] = test system: M14 melanoma
[23] = test system: MALME-3M melanoma
[24] = test system: MCF7 breast
[25] = test system: MDA-MB-231 breast
[26] = test system: MDA-MB-435
[27] = test system: MOLT-4 leukemia
[28] = test system: NCI-H460 lung
[29] = test system: NCI-H522 lung
[30] = test system: NCI/ADR-RES ovarian
[31] = test system: OVCAR-3 ovarian
[32] = test system: OVCAR-4 ovarian
[33] = test system: OVCAR-5 ovarian
[34] = test system: OVCAR-8 ovarian
[35] = test system: PC-3 prostate
[36] = test system: RXF 393 renal
[37] = test system: SF-295 CNS
[38] = test system: SK-MEL-2 melanoma
[39] = test system: SK-OV-3 ovarian
[40] = test system: SN12C renal
[41] = test system: SNB-19 CNS
[42] = test system: SW-620 colon
[43] = test system: TK-10 renal
[44] = test system: U251 CNS
[45] = test system: UACC-257 melanoma
[46] = test system: UACC-62 melanoma
[47] = test system: UO-31 renal

Clc1cc(Cl)cc(-c2ccc(-c3ccc(/C=N/NC4=NCCN4)cc3)s2)c1
57.4 µM: TGI [2]
7.93 µM: TGI [11]
4.67 µM: TGI [7]
> 100 µM: TGI [6] | TGI [10]
3.12 µM: TGI [5]
5.78 µM: TGI [1]
6.41 µM: TGI [4]
inactive: GI50 [1] 1.39 µM | GI50 [2] 9.24 µM | GI50 [3] 1.77 µM | GI50 [4] 2.3 µM | GI50 [5] 1.71 µM | GI50 [6] 4.16 µM | GI50 [7] 1.98 µM | GI50 [8] 1.7 µM | GI50 [9] 2.09 µM | GI50 [10] 4.61 µM | GI50 [11] 1.78 µM
3.2 µM: TGI [3]
4.69 µM: TGI [9]
3.07 µM: TGI [8]

CC(=O)/C=C/c1ccc(OCc2ccc(C(C)(C)C)cc2)cc1
inactive: GI50 [12] > 1000 µM | GI50 [1] > 1000 µM | GI50 [13] > 1000 µM | GI50 [14] > 1000 µM | GI50 [15] > 1000 µM | GI50 [3] > 1000 µM | GI50 [16] > 1000 µM | GI50 [17] > 1000 µM | GI50 [18] > 1000 µM | GI50 [19] > 1000 µM | GI50 [4] > 1000 µM | GI50 [20] 40.7 µM | GI50 [21] > 1000 µM | GI50 [5] > 1000 µM | GI50 [22] > 1000 µM | GI50 [23] > 1000 µM | GI50 [24] > 1000 µM | GI50 [25] > 1000 µM | GI50 [26] > 1000 µM | GI50 [27] > 1000 µM | GI50 [6] > 1000 µM | GI50 [28] > 1000 µM | GI50 [29] > 1000 µM | GI50 [30] > 1000 µM | GI50 [31] > 1000 µM | GI50 [32] > 1000 µM | GI50 [33] > 1000 µM | GI50 [34] > 1000 µM | GI50 [35] > 1000 µM | GI50 [36] > 1000 µM | GI50 [7] > 1000 µM | GI50 [37] > 1000 µM | GI50 [8] > 1000 µM | GI50 [38] > 1000 µM | GI50 [9] > 1000 µM | GI50 [10] 46.5 µM | GI50 [39] > 1000 µM | GI50 [40] > 1000 µM | GI50 [41] > 1000 µM | GI50 [11] > 1000 µM | GI50 [42] > 1000 µM | GI50 [43] > 1000 µM | GI50 [44] > 1000 µM | GI50 [45] > 1000 µM | GI50 [46] > 1000 µM | GI50 [47] > 1000 µM
> 1000 µM: TGI [12] | TGI [1] | TGI [13] | TGI [14] | TGI [15] | TGI [3] | TGI [16] | TGI [17] | TGI [18] | TGI [19] | TGI [4] | TGI [20] | TGI [21] | TGI [5] | TGI [22] | TGI [23] | TGI [24] | TGI [25] | TGI [26] | TGI [27] | TGI [6] | TGI [28] | TGI [29] | TGI [30] | TGI [31] | TGI [32] | TGI [33] | TGI [34] | TGI [35] | TGI [36] | TGI [7] | TGI [37] | TGI [8] | TGI [38] | TGI [9] | TGI [10] | TGI [39] | TGI [40] | TGI [41] | TGI [11] | TGI [42] | TGI [43] | TGI [44] | TGI [45] | TGI [46] | TGI [47]
